Experimental data taken from ChEMBL document CHEMBL5291721, “A preclinical secondary pharmacology resource illuminates target-adverse drug reaction associations of marketed drugs” (Nat Commun, 2023).
Where a SMILES comes first, the peptide text is derived from it. [ ]: non-standard residue; d: D form. pGlu = O=C1CC[C@@H](C(=O)O)N1; Thz = O=C(O)[C@@H]1CSCN1

Legend:
Mu-type opioid receptor = Mu-type opioid receptor (Homo sapiens, UniProt P35372); assay: biochemical; type: functional
[1] = target: T1, Alpha-2B adrenergic receptor (Homo sapiens, UniProt P18089)
T1 sequence (P18089 whole entry): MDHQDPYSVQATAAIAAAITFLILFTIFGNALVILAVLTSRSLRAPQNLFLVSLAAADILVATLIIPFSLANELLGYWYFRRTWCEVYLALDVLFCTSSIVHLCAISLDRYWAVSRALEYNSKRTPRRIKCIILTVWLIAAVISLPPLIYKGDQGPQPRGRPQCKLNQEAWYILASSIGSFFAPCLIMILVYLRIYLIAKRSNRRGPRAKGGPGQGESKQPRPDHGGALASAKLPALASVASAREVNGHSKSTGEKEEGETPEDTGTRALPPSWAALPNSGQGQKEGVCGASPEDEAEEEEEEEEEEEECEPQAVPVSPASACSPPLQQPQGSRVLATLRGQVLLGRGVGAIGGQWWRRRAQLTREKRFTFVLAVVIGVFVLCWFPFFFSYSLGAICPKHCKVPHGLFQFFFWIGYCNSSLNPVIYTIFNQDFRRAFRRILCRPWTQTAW

[2] = target: T2, Muscarinic acetylcholine receptor M1 (Homo sapiens, UniProt P11229); type: functional
T2 sequence (P11229 whole entry): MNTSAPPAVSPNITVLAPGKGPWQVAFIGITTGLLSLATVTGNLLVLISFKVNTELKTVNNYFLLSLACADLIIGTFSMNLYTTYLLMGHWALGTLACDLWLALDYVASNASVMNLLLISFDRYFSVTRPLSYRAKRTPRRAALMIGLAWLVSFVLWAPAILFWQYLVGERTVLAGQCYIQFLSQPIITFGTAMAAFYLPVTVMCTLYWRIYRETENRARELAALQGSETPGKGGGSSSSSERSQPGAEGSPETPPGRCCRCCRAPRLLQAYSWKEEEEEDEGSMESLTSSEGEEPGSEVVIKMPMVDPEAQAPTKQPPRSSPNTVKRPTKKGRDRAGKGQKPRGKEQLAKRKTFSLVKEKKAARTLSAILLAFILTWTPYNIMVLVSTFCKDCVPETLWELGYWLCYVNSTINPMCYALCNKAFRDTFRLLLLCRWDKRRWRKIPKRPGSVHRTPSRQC

[3] = target: 5-hydroxytryptamine receptor 2A (Homo sapiens, UniProt P28223); type: functional, cell-based
Chain of 5-hydroxytryptamine receptor 2A (P28223 whole entry): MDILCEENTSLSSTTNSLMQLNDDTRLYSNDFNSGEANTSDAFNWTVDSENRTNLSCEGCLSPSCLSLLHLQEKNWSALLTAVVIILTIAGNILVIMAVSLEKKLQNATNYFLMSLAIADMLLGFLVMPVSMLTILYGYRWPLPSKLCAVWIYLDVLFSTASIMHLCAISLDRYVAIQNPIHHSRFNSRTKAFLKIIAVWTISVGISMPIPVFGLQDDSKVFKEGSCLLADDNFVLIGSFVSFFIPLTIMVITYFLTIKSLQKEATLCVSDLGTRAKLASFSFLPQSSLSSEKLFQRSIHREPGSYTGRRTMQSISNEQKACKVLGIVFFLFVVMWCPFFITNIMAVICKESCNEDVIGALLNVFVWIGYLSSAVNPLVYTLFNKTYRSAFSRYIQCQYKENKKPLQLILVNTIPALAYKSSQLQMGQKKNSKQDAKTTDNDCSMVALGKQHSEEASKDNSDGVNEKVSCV

Histamine H1 receptor = Histamine H1 receptor (Homo sapiens, UniProt P35367)
Chain of Histamine H1 receptor (P35367 whole entry): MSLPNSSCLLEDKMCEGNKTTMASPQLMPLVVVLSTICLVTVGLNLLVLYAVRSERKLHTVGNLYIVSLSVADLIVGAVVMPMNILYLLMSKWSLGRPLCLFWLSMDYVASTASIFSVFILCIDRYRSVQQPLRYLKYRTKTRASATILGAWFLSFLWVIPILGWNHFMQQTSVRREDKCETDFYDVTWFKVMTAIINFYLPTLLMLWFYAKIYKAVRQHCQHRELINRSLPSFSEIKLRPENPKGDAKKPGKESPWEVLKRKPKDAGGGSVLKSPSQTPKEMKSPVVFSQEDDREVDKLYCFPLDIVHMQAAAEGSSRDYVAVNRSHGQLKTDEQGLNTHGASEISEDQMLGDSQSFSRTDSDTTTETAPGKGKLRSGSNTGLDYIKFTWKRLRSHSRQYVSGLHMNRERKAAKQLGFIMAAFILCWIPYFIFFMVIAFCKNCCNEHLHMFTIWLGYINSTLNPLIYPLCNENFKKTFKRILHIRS

[4] = target: T3, Alpha-1A adrenergic receptor (Homo sapiens, UniProt P35348); type: functional, cell-based
T3 sequence (P35348 whole entry): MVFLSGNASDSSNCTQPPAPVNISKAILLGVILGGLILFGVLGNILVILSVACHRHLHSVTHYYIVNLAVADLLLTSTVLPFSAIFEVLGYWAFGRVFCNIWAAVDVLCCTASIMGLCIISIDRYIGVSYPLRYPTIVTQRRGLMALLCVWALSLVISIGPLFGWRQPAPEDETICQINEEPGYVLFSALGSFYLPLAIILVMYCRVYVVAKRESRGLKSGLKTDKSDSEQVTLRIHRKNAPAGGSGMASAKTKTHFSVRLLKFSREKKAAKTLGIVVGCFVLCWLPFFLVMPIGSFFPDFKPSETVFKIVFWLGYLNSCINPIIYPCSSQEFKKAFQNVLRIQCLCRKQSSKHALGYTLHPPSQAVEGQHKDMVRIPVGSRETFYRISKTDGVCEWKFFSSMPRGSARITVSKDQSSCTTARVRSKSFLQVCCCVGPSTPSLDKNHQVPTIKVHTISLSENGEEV

Cannabinoid receptor 1 [5] = target: T4, Cannabinoid receptor 1 (Homo sapiens, UniProt P21554)
T4 sequence (P21554 whole entry): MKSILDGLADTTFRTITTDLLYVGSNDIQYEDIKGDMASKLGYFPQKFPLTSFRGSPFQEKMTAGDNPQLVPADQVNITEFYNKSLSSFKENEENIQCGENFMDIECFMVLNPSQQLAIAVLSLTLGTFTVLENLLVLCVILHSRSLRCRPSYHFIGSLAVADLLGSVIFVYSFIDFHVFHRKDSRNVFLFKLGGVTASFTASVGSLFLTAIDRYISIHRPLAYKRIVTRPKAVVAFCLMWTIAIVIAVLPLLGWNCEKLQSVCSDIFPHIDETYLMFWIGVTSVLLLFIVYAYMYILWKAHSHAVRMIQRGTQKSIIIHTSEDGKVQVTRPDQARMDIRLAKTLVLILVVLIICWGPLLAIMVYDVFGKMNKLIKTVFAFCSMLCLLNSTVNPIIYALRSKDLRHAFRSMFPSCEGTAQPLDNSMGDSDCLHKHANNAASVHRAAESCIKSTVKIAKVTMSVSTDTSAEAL

Estrogen receptor = target: T5, Estrogen receptor (Homo sapiens, UniProt P03372)
T5 sequence (P03372 whole entry): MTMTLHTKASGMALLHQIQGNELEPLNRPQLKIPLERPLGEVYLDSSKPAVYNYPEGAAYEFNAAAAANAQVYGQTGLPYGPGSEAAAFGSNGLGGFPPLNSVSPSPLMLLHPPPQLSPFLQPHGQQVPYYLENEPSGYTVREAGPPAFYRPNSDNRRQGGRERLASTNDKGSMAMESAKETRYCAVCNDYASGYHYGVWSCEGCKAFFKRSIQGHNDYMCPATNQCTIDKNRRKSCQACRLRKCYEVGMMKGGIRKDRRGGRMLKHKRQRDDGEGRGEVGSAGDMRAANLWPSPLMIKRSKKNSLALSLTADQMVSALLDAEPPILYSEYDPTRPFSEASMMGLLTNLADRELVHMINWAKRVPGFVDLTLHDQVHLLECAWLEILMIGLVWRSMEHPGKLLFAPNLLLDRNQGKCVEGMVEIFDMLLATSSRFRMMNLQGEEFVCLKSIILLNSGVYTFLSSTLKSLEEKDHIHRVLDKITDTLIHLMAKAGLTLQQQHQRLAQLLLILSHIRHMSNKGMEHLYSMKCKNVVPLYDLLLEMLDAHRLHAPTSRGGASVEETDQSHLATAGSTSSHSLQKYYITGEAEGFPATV

[6] = target: T3, Alpha-1A adrenergic receptor
Cannabinoid receptor 1 [7] = target: T4, Cannabinoid receptor 1; type: functional, cell-based
Cannabinoid receptor 1 [8] = target: T4, Cannabinoid receptor 1; type: functional, cell-based; remark: listed apart in the source
[9] = target: Beta-2 adrenergic receptor (Homo sapiens, UniProt P07550); type: functional, cell-based
Chain of Beta-2 adrenergic receptor (P07550 whole entry): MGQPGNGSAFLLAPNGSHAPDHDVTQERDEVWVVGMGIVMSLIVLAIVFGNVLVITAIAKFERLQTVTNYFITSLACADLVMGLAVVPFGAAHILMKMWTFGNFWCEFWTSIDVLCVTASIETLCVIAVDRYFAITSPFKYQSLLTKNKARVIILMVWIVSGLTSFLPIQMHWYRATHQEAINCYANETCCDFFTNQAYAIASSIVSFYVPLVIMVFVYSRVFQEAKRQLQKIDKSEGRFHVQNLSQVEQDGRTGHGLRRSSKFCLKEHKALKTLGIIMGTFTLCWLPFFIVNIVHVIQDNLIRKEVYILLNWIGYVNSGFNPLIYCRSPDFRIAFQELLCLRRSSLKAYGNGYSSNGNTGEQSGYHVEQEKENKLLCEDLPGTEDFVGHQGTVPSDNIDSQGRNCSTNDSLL

[10] = target: T6, 5-hydroxytryptamine receptor 1A (Homo sapiens, UniProt P08908); type: functional, cell-based
T6 sequence (P08908 whole entry): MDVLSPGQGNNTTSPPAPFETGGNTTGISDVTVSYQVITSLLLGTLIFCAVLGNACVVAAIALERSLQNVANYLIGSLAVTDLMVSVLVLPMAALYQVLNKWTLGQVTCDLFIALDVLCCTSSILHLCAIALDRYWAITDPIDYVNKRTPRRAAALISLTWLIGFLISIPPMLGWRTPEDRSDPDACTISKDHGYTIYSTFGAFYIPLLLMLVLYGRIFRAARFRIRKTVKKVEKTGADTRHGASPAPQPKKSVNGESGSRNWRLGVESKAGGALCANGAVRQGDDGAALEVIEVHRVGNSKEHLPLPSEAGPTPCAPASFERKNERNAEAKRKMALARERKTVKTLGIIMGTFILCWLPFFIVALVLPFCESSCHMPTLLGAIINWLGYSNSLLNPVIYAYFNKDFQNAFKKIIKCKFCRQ
Note: assay procedure not described here.

Chain of Mu-type opioid receptor (P35372 whole entry): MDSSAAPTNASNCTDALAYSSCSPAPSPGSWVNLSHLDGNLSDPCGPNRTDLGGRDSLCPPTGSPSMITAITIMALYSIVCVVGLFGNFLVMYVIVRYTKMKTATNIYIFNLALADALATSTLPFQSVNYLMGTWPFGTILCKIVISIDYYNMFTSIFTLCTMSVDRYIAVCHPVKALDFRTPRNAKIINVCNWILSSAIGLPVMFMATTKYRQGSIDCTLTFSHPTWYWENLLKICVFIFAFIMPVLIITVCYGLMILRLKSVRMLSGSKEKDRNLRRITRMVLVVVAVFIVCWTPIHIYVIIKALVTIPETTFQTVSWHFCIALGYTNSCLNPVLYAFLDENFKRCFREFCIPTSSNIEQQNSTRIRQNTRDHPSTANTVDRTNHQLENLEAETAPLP

Clc1ccc(CCC(Cn2ccnc2)Sc2c(Cl)cccc2Cl)cc1 (stereo unspecified) [BUTOCONAZOLE]
AC50 (Mu-type opioid receptor): > 30 µM | AC50 [1]: 19 µM | AC50 [2]: > 30 µM | AC50 [3]: > 30 µM | AC50 (Histamine H1 receptor): > 30 µM | AC50 [4]: > 30 µM | AC50 (Cannabinoid receptor 1 [5]): > 30 µM | AC50 (Estrogen receptor): 20 µM

CCc1nc(N)nc(N)c1-c1ccc(Cl)cc1 [PYRIMETHAMINE]
AC50 [6]: 4 µM | AC50 (Mu-type opioid receptor): > 30 µM | AC50 [1]: > 10 µM | AC50 (Cannabinoid receptor 1 [7]): > 30 µM | AC50 (Cannabinoid receptor 1 [8]): > 30 µM | AC50 [2]: > 30 µM | AC50 (Histamine H1 receptor): > 30 µM | AC50 [9]: > 30 µM | AC50 [4]: > 30 µM | AC50 (Cannabinoid receptor 1 [5]): > 10 µM | AC50 (Estrogen receptor): > 10 µM | AC50 [10]: > 10 µM

O=C1CC[C@@H](C(=O)N2CSC[C@H]2C(=O)O)N1 [PIDOTIMOD] ([pGlu]-[Thz]-OH)
AC50 (Mu-type opioid receptor): > 30 µM | AC50 [1]: > 30 µM | AC50 (Cannabinoid receptor 1 [7]): > 30 µM | AC50 (Cannabinoid receptor 1 [8]): > 30 µM | AC50 [2]: > 30 µM | AC50 [3]: > 30 µM | AC50 (Histamine H1 receptor): > 30 µM | AC50 [4]: > 30 µM | AC50 (Estrogen receptor): > 30 µM

COc1ccc(CN2CCN(C(c3ccc(F)cc3)c3ccc(F)cc3)CC2)c(OC)c1OC [LOMERIZINE]
AC50 (Mu-type opioid receptor): 3.3 µM | AC50 [1]: 19 µM | AC50 (Cannabinoid receptor 1 [7]): > 30 µM | AC50 (Cannabinoid receptor 1 [8]): 23 µM | AC50 [2]: 0.94 µM | AC50 [3]: > 30 µM | AC50 (Histamine H1 receptor): 4.5 µM | AC50 [4]: 8.2 µM

Oc1ccc(CCNCCCCCCNCCc2ccccc2)cc1O [DOPEXAMINE]
AC50 (Mu-type opioid receptor): > 30 µM | AC50 [1]: 19 µM | AC50 (Cannabinoid receptor 1 [7]): > 30 µM | AC50 (Cannabinoid receptor 1 [8]): > 30 µM | AC50 [2]: 14 µM | AC50 [3]: > 30 µM | AC50 (Histamine H1 receptor): 15 µM | AC50 [4]: 1.4 µM | AC50 (Estrogen receptor): > 30 µM | AC50 [10]: > 30 µM

CC(C(=O)O)c1ccc2c(c1)CC(=O)c1ccccc1S2 (stereo unspecified) [ZALTOPROFEN]
AC50 (Mu-type opioid receptor): > 30 µM | AC50 [1]: > 30 µM | AC50 (Cannabinoid receptor 1 [7]): > 30 µM | AC50 (Cannabinoid receptor 1 [8]): > 30 µM | AC50 [2]: > 30 µM | AC50 [3]: > 30 µM | AC50 (Histamine H1 receptor): > 30 µM | AC50 [4]: > 30 µM | AC50 (Estrogen receptor): > 30 µM

CCc1cc2c(s1)-n1c(C)nnc1CN=C2c1ccccc1Cl [ETIZOLAM]
AC50 (Mu-type opioid receptor): > 30 µM | AC50 [1]: > 30 µM | AC50 (Cannabinoid receptor 1 [7]): > 30 µM | AC50 (Cannabinoid receptor 1 [8]): > 30 µM | AC50 [2]: > 30 µM | AC50 [3]: > 30 µM | AC50 (Histamine H1 receptor): > 30 µM | AC50 [4]: > 30 µM | AC50 (Estrogen receptor): > 30 µM

CCCN1CCCC[C@H]1C(=O)Nc1c(C)cccc1C [ROPIVACAINE]
AC50 (Mu-type opioid receptor): > 30 µM | AC50 [1]: > 30 µM | AC50 (Cannabinoid receptor 1 [7]): > 30 µM | AC50 (Cannabinoid receptor 1 [8]): > 30 µM | AC50 [2]: > 30 µM | AC50 [3]: > 30 µM | AC50 (Histamine H1 receptor): > 30 µM | AC50 [4]: > 30 µM

Oc1cc(O)c(Cl)cn1
AC50 (Mu-type opioid receptor): > 30 µM | AC50 [1]: > 30 µM | AC50 (Cannabinoid receptor 1 [7]): > 30 µM | AC50 (Cannabinoid receptor 1 [8]): > 30 µM | AC50 [2]: > 30 µM | AC50 [3]: > 30 µM | AC50 (Histamine H1 receptor): > 30 µM | AC50 [4]: 26 µM
